Bridge positions count the residues as written; N and C are the ends. Square brackets hold non-standard residues; d marks the D form. Peptide text beside a SMILES is read from it. I, II: the chains in the order shown. hArg = N=C(N)NCCCC[C@H](N)C(=O)O; Met(O) = CS(=O)CC[C@H](N)C(=O)O; Ac5c = NC1(C(=O)O)CCCC1; Aib = CC(C)(N)C(=O)O

The target in experiment [1] is T1, Saos-2 PTH1R (Homo sapiens, UniProt Q03431).
T1 construct: endogenous in cells; host or cells: Saos-2
T1 sequence (Q03431 27-593): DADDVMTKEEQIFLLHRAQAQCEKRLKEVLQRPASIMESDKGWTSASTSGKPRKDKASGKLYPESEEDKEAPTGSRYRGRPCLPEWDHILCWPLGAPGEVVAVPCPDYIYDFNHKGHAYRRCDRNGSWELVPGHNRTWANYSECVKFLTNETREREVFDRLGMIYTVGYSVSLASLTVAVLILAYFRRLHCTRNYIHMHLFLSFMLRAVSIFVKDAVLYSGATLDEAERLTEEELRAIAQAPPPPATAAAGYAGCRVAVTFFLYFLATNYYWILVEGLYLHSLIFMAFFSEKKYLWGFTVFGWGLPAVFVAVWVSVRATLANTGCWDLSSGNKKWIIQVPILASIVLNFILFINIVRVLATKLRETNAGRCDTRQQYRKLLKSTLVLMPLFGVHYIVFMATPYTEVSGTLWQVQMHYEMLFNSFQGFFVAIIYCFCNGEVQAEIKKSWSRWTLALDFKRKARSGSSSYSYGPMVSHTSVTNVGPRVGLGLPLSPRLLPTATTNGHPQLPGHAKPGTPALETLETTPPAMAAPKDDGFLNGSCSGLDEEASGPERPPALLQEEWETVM
The experiment is described as follows: cAMP-efficacy assay in Saos-2 cells. It is filed as cell-based. The conditions noted are these: for EC50: cAMP, 100 μM IBMX, 37° C. 15 min, suffix of label = salt tested; for Emax ± SEM: relative effect to the control (SEQ ID NO: 32). As for the experimental part:
Peptides were dissolved in phosphate buffered saline and further diluted in Tyrode's buffer (TB, Sigma-Aldrich) containing 0.1% BSA and 100 μM isobutyl-methyl-xanthine (IBMX, Sigma-Aldrich). Saos-2 cells were seeded at 50,000 cells/well in 96-microtiter plates and grown for two days before the efficacy assays. On the day of analysis, the growth medium was carefully removed by suction. Cells were washed once with 200 μl TB/0.1% BSA. The buffer was replaced with 100 μl reaction mixture (±test peptide), and incubated at 37° C. for 15 min. The reaction was stopped by addition of 25 μl of ice-cold 0.5 M HCl. Cells were in the following incubated on ice for 60 min. 75 μl acetate-buffer, pH6.2, was added to each well of a 96-well cAMP FlashPlate (Perkin-Elmer). […] FlashPlates were incubated overnight at 4° C., emptied by suction and counted in a TopCounter (Packard).
Determinations were performed in single determinations or triplicates at all doses. […] Standards were included as single determinations, duplicates or triplicates in each experiment, preferentially on each plate.
Concentration-dependent cAMP responses were imported into GraphPad Prism vers. 4 (GraphPad Software), transformed and plotted. […] Thus, a four-parameter logistic equation was used for determination of the EC50 values. Curves were fitted with a function for sigmoidal dose response curve (variable slope) non-linear fit Y=Bottom+(Top-Bottom)/(1+10̂((LogEC50−X)*HillSlope)) where X is the logarithm of concentration and Y is the response. Y starts at Bottom and goes to Top with a sigmoid shape. pEC50, Hill-coefficient and the maximally inducible concentration of cAMP (Emax) were evaluated.
Overall statistical differences were analyzed with Statistica (Statsoft) using one-way ANOVA. Post-hoc comparisons were made by the use of Fisher's Least Significance Test. Results were considered significant, when p was lower than 0.05.

Experiment [2] has as its target Saos-2 PTH1R (UniProt Q03431). The experiment is described as follows: cell-based or functional assay.

`CC[C@H](C)[C@H](NC(=O)[C@H](CCC(=O)O)NC(=O)C(C)(C)NC(=O)[C@@H](NC(=O)C1(N)CCCC1)C(C)C)C(=O)N[C@@H](CCC(=O)O)C(=O)N[C@@H](CC(C)C)C(=O)N[C@@H](CC(C)C)C(=O)N[C@@H](Cc1c[nH]cn1)C(=O)N[C@@H](CCC(N)=O)C(=O)N[C@@H](CCCCNC(=N)N)C(=O)N[C@@H](C)C(=O)N[C@H]1CCCCNC(=O)C[C@@H](C(N)=O)NC(=O)[C@H](CC(N)=O)NC(=O)[C@H](CC(C)C)NC(=O)[C@H](Cc2c[nH]c3ccccc23)NC1=O` [SEQ ID NO: 29, H-Ac5c-Val-Aib-Glu-Ile-Glu-Leu-Leu-His-Gln-Har-Ala-Lys( )-Trp-Leu-Asn-Asp( )-NH2] (H-[Ac5c]V[Aib]EIELLHQ[hArg]AKWLND-NH2; lactam 13-17): in experiment [1], the EC50 was 112 nM and the “Emax ± SEM” value was 1.27 ± 0.20.
Taken in the same sequence, the figures for `CC[C@H](C)[C@H](NC(=O)[C@H](CCC(=O)O)NC(=O)C(C)(C)NC(=O)[C@@H](NC(=O)C1(N)CCCC1)C(C)C)C(=O)N[C@@H](CCC(N)=O)C(=O)N[C@@H](CC(C)C)C(=O)N[C@@H](CCSC)C(=O)N[C@@H](Cc1c[nH]cn1)C(=O)N[C@@H](CC(N)=O)C(=O)N[C@@H](CC(C)C)C(=O)NCC(=O)N[C@@H](CCCCN)C(=O)N[C@@H](Cc1c[nH]cn1)C(=O)N[C@@H](CC(C)C)C(=O)N[C@@H](CC(N)=O)C(=O)N[C@@H](CO)C(N)=O` [SEQ ID NO: 35] (H-[Ac5c]V[Aib]EIQLMHNLGKHLNS-NH2) were 8130 nM and 1.20 ± 0.01.
On to `CC[C@H](C)[C@H](NC(=O)[C@H](CCC(=O)O)NC(=O)C(C)(C)NC(=O)[C@@H](NC(=O)C1(N)CCCC1)C(C)C)C(=O)N[C@@H](CCC(N)=O)C(=O)N[C@@H](CC(C)C)C(=O)N[C@@H](CCSC)C(=O)N[C@@H](Cc1c[nH]cn1)C(=O)N[C@@H](CCC(N)=O)C(=O)N[C@@H](CCCCNC(=N)N)C(=O)N[C@@H](C)C(=O)N[C@@H](CCCCN)C(=O)N[C@@H](Cc1c[nH]c2ccccc12)C(=O)N[C@@H](CC(C)C)C(=O)N[C@@H](CC(N)=O)C(=O)N[C@@H](CC(=O)O)C(=O)O` [SEQ ID NO: 38, H-Ac5c-Val-Aib-Glu-Ile-Gln-Leu-Met-His-Gln-Har-Ala-Lys-Trp-Leu-Asn-Asp-OH] (H-[Ac5c]V[Aib]EIQLMHQ[hArg]AKWLND-OH), for which, in experiment [1], the concentration for a half-maximal effect (EC50) is 100 nM and the “Emax ± SEM” value was 1.2.
On to `CC[C@H](C)[C@H](NC(=O)[C@H](CCC(=O)O)NC(=O)C(C)(C)NC(=O)[C@@H](NC(=O)C1(N)CCCC1)C(C)C)C(=O)N[C@@H](CCC(N)=O)C(=O)N[C@@H](CC(C)C)C(=O)N[C@@H](CCSC)C(=O)N[C@@H](Cc1c[nH]cn1)C(=O)N[C@@H](CCC(N)=O)C(=O)N[C@@H](CCCCNC(=N)N)C(=O)N[C@@H](C)C(=O)N[C@H]1CCCCNC(=O)C[C@@H](C(N)=O)NC(=O)[C@H](CC(N)=O)NC(=O)[C@H](CC(C)C)NC(=O)[C@H](Cc2c[nH]c3ccccc23)NC(=O)[C@@H](NC(=O)[C@H](C)NC(=O)[C@H](CCCCNC(=N)N)NC(=O)[C@H](CCC(N)=O)NC(=O)[C@H](Cc2c[nH]cn2)NC(=O)[C@H](CCSC)NC(=O)[C@H](CC(C)C)NC(=O)[C@H](CCC(N)=O)NC(=O)[C@@H](NC(=O)[C@H](CCC(=O)O)NC(=O)C(C)(C)NC(=O)[C@@H](NC(=O)C2(N)CCCC2)C(C)C)[C@@H](C)CC)CCCCNC(=O)C[C@@H](C(N)=O)NC(=O)[C@H](CC(N)=O)NC(=O)[C@H](CC(C)C)NC(=O)[C@H](Cc2c[nH]c3ccccc23)NC1=O` [SEQ ID NO: 39, (H-Ac5c-Val-Aib-Glu-Ile-Gln-Leu-Met-His-Gln-Har-Ala-Lys( )-Trp-Leu-Asn-Asp( )-NH2)2] (I: H-[Ac5c]V[Aib]EIQLMHQ[hArg]AKWLND-NH2 / II: H-[Ac5c]V[Aib]EIQLMHQ[hArg]AKWLND-NH2; amide I:13-II:17, I:17-II:13), for which the “Emax ± SEM” value in experiment [1] came out at 0.95 ± 0.05.
As to `CC[C@H](C)[C@H](NC(=O)[C@H](CCC(=O)O)NC(=O)C(C)(C)NC(=O)[C@@H](NC(=O)C1(N)CCCC1)C(C)C)C(=O)N[C@@H](CCC(N)=O)C(=O)N[C@@H](CC(C)C)C(=O)N[C@@H](CC[S+](C)[O-])C(=O)N[C@@H](Cc1c[nH]cn1)C(=O)N[C@@H](CCC(N)=O)C(=O)N[C@@H](CCCCNC(=N)N)C(=O)N[C@@H](C)C(=O)N[C@H]1CCCCNC(=O)C[C@@H](C(N)=O)NC(=O)[C@H](CC(N)=O)NC(=O)[C@H](CC(C)C)NC(=O)[C@H](Cc2c[nH]c3ccccc23)NC1=O` (stereo partly drawn) [SEQ ID NO: 40, H-Ac5c-Val-Aib-Glu-Ile-Gln-Leu-Met(O)-His-Gln-Har-Ala-Lys( )-Trp-Leu-Asn-Asp( )-NH2] (H-[Ac5c]V[Aib]EIQL[Met(O)]HQ[hArg]AKWLND-NH2; lactam 13-17), in experiment [1], the EC50 is 126 nM and the “Emax ± SEM” value was determined as 1.1.
For the compound “(H-Ac5c-Val-Aib-Glu-Ile-Gln-Leu-Met-His-Gln-Har-Ala-Lys( )-Trp-Leu-Asn-Asp( )-NH2)2 (peptide)”, in experiment [2], the Emax, cAMP efficacy assay in Saos-2 cells (39T, trifluoroacetate salt) (relative to control (SEQ ID NO: 32)) was 0.95 and the pEC50, cAMP efficacy assay in Saos-2 cells (39T, trifluoroacetate salt) was 8.3 -log(M).
For the compound “H-Ac5c-Val-Ac5c-Glu-Ile-Gln-Leu-Leu-His-Gln-Har-Ala-Lys( )-Trp-Leu-Asn-Asp( )-NH2 (peptide)”, in experiment [2], the Emax, cAMP efficacy assay in Saos-2 cells (14T, trifluoroacetate salt) (relative to control (SEQ ID NO: 32)) was found to be 1.03 and the pEC50, cAMP efficacy assay in Saos-2 cells (14T, trifluoroacetate salt) was 7.45 -log(M).
As to “H-Ac5c-Val-Aib-Glu-Ile-Gln-Leu-Leu-His-Gln-Har-Ala-Lys( )-Trp-Leu-Asp-Asp( )-NH2 (peptide)”, in experiment [2], the Emax, cAMP efficacy assay in Saos-2 cells (22T, trifluoroacetate salt) (relative to control (SEQ ID NO: 32)) came to 1.08 and the pEC50, cAMP efficacy assay in Saos-2 cells (22T, trifluoroacetate salt) was 7.13 -log(M).

These data come from patent publication US20100048462A1, “TRUNCATED PTH PEPTIDES WITH A CYCLIC CONFORMATION” (Zealand Pharma A/S, priority 2006, published 2010).
